Reference: patent publication US10729701B2, “Compounds that are analogs of squalamine, used as antibacterial agents” (VIRBAC, priority 2015, dated 2020)
pIC50: −log10 of the molar value. ≈ marks a conversion by molar mass, not a printed value. Read-outs that look alike come from different tables or passages of the source.

Tests used:
P. aeruginosa (PAO1) [1] = assay: Potentiating of doxycycline activity by aminosteroidal derivative; assay type: cell-based, Pseudomonas aeruginosa; conditions: Doxycycline concentration used 2 μg/ml, 37° C., 24 h
Protocol: (§1) This method requires the use of a 96-well plate; 100 μl of a liquid culture medium are deposited in each well and then inoculated with the microbial suspension prepared above. The necessary volume to be inoculated is calculated for an OD of 0.01, which corresponds to approximately 5×10^6 bacteria in each well. In this plate, the first line corresponds to a negative control (200 μl of sterile culture medium in each well), the second line to a positive control (100 μl of sterile culture medium+100 μl of a bacterial suspension), the third line contains 192 μl of culture medium; 8 μl of aminosteroidal product to be tested are placed in each well. Subsequently, cascade dilution is carried out starting from this line. 8 μl of a doxycycline solution (1 mg dissolved in 20 ml) are subsequently added to each well of lines 3 to 8, in order to obtain a final concentration of antibiotic of 2 μg/ml. 92 μl of bacterial suspension are subsequently added to lines 3 to 8. The results (the determination of the MIC (2 μg/ml of doxycycline) in the presence of X μg/ml of aminosteroidal derivative) are read after incubating at 37° C. for 24 h in a humid atmosphere. After incubating at 37° C. for 24 h, 40 μl of nitrotetrazolium iodide are added to each well, making it possible to reveal the presence of living bacteria by coloring the medium pink.
(§2) The use of low amounts of aminosteroidal derivatives makes it possible to restore (to reduce) the necessary concentration of antibiotic to kill the strain under consideration.

S. faecalis = assay: Minimum inhibitory concentration (MIC), microplate dilution; assay type: cell-based, E. faecalis CIP 103015; conditions: Enterococcus faecalis; Table I; Mueller-Hinton medium, 37° C., 24 h
Protocol: (§3) A positive control (1940 μl of culture medium+40 μl of DMSO+20 μl of the bacterial suspension) from a defrosted biological strain (the preservation of the biological strains is carried out at −80° C. in glycerol). The strains used are S. aureus ATCC 25923, E. coli ATCC 25922, P. aeruginosa ATCC 27853, C. albicans CIP 1180-79 and E. faecalis CIP 103015.
(§4) The microorganisms were handled under a hood in the laboratory of L2 type and, before any handling operation, a UV cycle was programmed and only sterile material was used. […] The chemical molecules to be tested were prepared in a DMSO/methanol (50/50) mixture at a concentration of 5 mg/ml.
(§5) After incubating for 24 h, the optical density was measured using a spectrophotometer at 600 nm by withdrawing 100 μl of the bacterial suspension diluted in 900 μl of the sterile culture medium. This test required the use of a 96-well plate and the necessary volume of the microbial suspension to be inoculated was calculated for an OD corresponding to a value equal to 0.01 in each well. In this plate, the first line corresponded to the negative control (195 μl of sterile culture medium in each well), the second line to the positive control (inoculated culture medium with the addition of 2% of DMSO), the third line was charged twice with bacterial suspension, 8 μl of product to be tested was placed in each well. Subsequently, cascade half dilution was carried out starting from this line.
(§6) The first column was used as inhibition control. A sterile filter was subsequently placed on the microplate, allowing the passage of gases but not of contaminants. The microplate was incubated at 37° C. in a humid atmosphere for 24 h.
(§7) NB: The medium used is the Mueller-Hinton (MH) medium for the bacteria. All the tests were carried out in duplicate.
(§8) After incubation, the filter was replaced with a transparent film and subsequently reading of OD was carried out in an IEMS plate spectrophotometer at 620 nm. A calculation of the minimum inhibitory concentration (MIC) was carried out.

P. aeruginosa ATCC 27853 = assay: as above; assay type: cell-based; conditions: Pseudomonas aeruginosa, ATCC27853; Table I; Mueller-Hinton medium, 37° C., 24 h
Protocol: as §3, §4, §5, §6, §7, §8

S. aureus ATCC 25923 = assay: as above; assay type: cell-based; conditions: Staphylococcus aureus, ATCC25923; Table I; Mueller-Hinton medium, 37° C., 24 h
Protocol: as §3, §4, §5, §6, §7, §8

C. albicans = assay: as above; assay type: cell-based, C. albicans CIP 1180-79; conditions: Candida albicans; Table I; 37° C., 24 h
Protocol: as §3, §4, §5, §6, §7, §8

P. aeruginosa (PAO1) [2] = assay: Potentiating of chloramphenicol activity by aminosteroidal derivative; assay type: cell-based, Pseudomonas aeruginosa; conditions: Chloramphenicol concentration used 4 μg/ml
Protocol: as §1, with “8 μl of a doxycycline solution (1 mg dissolved in 20 ml) are subsequently added to each well of lines 3 to 8, in order to obtain a final concentration of antibiotic of 2 μg/ml.” left out, “The results (the determination of the MIC (2 μg/ml of doxycycline) in the presence of X μg/ml of aminosteroidal derivative) are read after incubating at 37° C. for 24 h in a humid atmosphere.” left out
as §2

CHO-K1 cells = assay: WST-1 cytotoxicity test; assay type: cell-based, Chinese hamster; conditions: Cricetulus griseus, WST-1 test, 24 hours, concentration reducing cell viability by 50%
Protocol: The WST-1 test was used to measure the cytotoxic activity of the products. This is a colorimetric test which makes it possible to measure the viability and the degree of cell proliferation.
The WST-1 test was carried out on Chinese hamster ovary cells. The CHO-K1 cells (ATCC, USA) are kept cultured in McCoy's 5 A medium additivated with 10% of fetal calf serum, with 2 mM of L-glutamine and with a penicillin/streptomycin mixture (100 U/ml: 10 μg/ml). Incubating is carried out at 37° C. under an atmosphere enriched in CO2 (5%) and subculturing is carried out every two days.
The cells are transferred into 96-well plates (25 000 cells/ml) in complete McCoy's 5 A medium and are maintained at 37° C. for 24 h under a humid atmosphere enriched in CO2 (5%). Increasing concentrations of test products are added to the wells in duplicate tests and 8 growth controls containing the cells in the medium alone are included in each series of tests. After 24 hours at 37° C. (5% of CO2), the culture medium is removed, the cells are rinsed in phosphate buffer (PBS) and 50 μl of PBS containing 10% of WST-1 reactant are added to each well. After incubating at 37° C. for 20 minutes, the results are read by spectrophotometry at 450 nm.
The results are expressed in the form of dose-response relationships, modeled by a nonlinear regression analysis using the TableCurve software.

[3] = system: S. aureus Methicillin-resistant; assay: Minimum inhibitory concentration (MIC), microplate dilution; assay type: cell-based; conditions: Staphylococcus aureus
Protocol: (§9) A positive control (1940 μl of culture medium+40 μl of DMSO+20 μl of the bacterial suspension) from a defrosted biological strain (the preservation of the biological strains is carried out at −80° C. in glycerol).
as §4, §5, §6, §7, §8

E. coli ATCC 25922 = assay: as above; assay type: cell-based; conditions: Escherichia coli, ATCC25922
Protocol: as §9, §4, §5, §6, §7, §8

P. aeruginosa (PAO1) [4] = assay: MIC of conventional antibiotics alone; assay type: cell-based; conditions: Pseudomonas aeruginosa
[5] = Table I, Mueller-Hinton medium, 37° C., 24 h
[6] = Table II, comparison with state of the art compounds
[7] = Table I, Mueller-Hinton medium, 37° C., 24 h, read-out: MIC E. coli ATCC 25922
[8] = Table II, comparison with state of the art compounds, read-out: MIC E. coli

Structure (SMILES)	Concentration of compound necessary in order to restore the activity of the antibiotic under consideration: Doxycycline (P. aeruginosa (PAO1) [1]) [µg/mL]	MIC (S. faecalis) [µg/mL]	MIC (P. aeruginosa ATCC 27853) [µg/mL]	MIC (S. aureus ATCC 25923) [µg/mL]	MIC (C. albicans) [µg/mL]	Concentration of compound necessary in order to restore the activity of the antibiotic under consideration: Chloramphenicol (P. aeruginosa (PAO1) [2]) [µg/mL]	pIC50 (CHO-K1 cells)	MIC [3, 5] [µg/mL]	MIC [3, 6] [µg/mL]	MIC (E. coli ATCC 25922; [7]) [µg/mL]	MIC (E. coli ATCC 25922; [8]) [µg/mL]	MIC (P. aeruginosa (PAO1) [4]; PAO1) [µg/mL]	MIC (P. aeruginosa (PAO1) [4]; antibiotic alone, Gram-negative strain of P. aeruginosa (PAO1), read-out: MIC) [µg/mL]
CC(C)CCC[C@@H](C)[C@H]1CCC2C3C(CC[C@@]21C)[C@@]1(C)CC[C@H](NCCCNCCCCNCCCN)C[C@@H]1C[C@H]3O (stereo partly drawn) [SA-1, 3β-Spermino-7α-hydroxy-5α-cholestane]	4	2 (≈ 3.4 µM)	32 (≈ 54.3 µM)	4 (≈ 6.79 µM)	2 (≈ 3.4 µM)	16	4.82	2 (≈ 3.4 µM)	2 (≈ 3.4 µM)	16 (≈ 27.2 µM)	16 (≈ 27.2 µM)		
CC(C)CCC[C@@H](C)[C@H]1CCC2C3C(CC[C@@]21C)[C@@]1(C)CC[C@H](NCCCNCCCCNCCCN)C[C@@H]1C[C@@H]3O (stereo partly drawn) [SA-2, 3β-Spermino-7β-hydroxy-5α-cholestane]	4	2 (≈ 3.4 µM)	32 (≈ 54.3 µM)	4 (≈ 6.79 µM)	2 (≈ 3.4 µM)	16	4.30	2 (≈ 3.4 µM)	2 (≈ 3.4 µM)	32 (≈ 54.3 µM)	32 (≈ 54.3 µM)		
CC(C)CCC[C@@H](C)[C@H]1CCC2C3C(CC[C@@]21C)[C@@]1(C)CC[C@H](NCCCNCCCN)C[C@@H]1C[C@@H]3O (stereo partly drawn) [SA-3, 3β-Norspermidino-7β-hydroxy-5α-cholestane]	5	2.5 (≈ 4.83 µM)	40 (≈ 77.2 µM)	5 (≈ 9.65 µM)	2.5 (≈ 4.83 µM)	10	4.49	2.5 (≈ 4.83 µM)	2.5 (≈ 4.83 µM)	20 (≈ 38.6 µM)	20 (≈ 38.6 µM)		
CC(C)CCC[C@@H](C)[C@H]1CCC2C3C(CC[C@@]21C)[C@@]1(C)CC[C@H](NCCCN)C[C@@H]1C[C@H]3O (stereo partly drawn) [SA-4, 3β-(1,3-Diaminopropane)-7β-hydroxy-5α-cholestane]		2 (≈ 4.34 µM)	32 (≈ 69.4 µM)	4 (≈ 8.68 µM)	2 (≈ 4.34 µM)		5.05	2 (≈ 4.34 µM)	2 (≈ 4.34 µM)	32 (≈ 69.4 µM)	32 (≈ 69.4 µM)		
CC(C)CCC[C@@H](C)[C@H]1CCC2C3C(CC[C@@]21C)[C@@]1(C)CC[C@H](NCCCCN)C[C@@H]1C[C@H]3O (stereo partly drawn) [SA-5, 3β-(1,4-Diaminobutane)-7β-hydroxy-5α-cholestane]		4 (≈ 8.42 µM)	32 (≈ 67.4 µM)	4 (≈ 8.42 µM)	4 (≈ 8.42 µM)		4.82	4 (≈ 8.42 µM)	4 (≈ 8.42 µM)	32 (≈ 67.4 µM)	32 (≈ 67.4 µM)		
CC(C)CCC[C@@H](C)[C@H]1CCC2C3C(CC[C@@]21C)[C@@]1(C)CC[C@H](NCCN(CCN)CCN)C[C@@H]1C[C@H]3O (stereo partly drawn) [SA-6, 3β-(Tris(2-aminoethyl)amine)-7β-hydroxy-5α-cholestane]	2.5	2.5 (≈ 4.69 µM)	40 (≈ 75.1 µM)	5 (≈ 9.38 µM)	2.5 (≈ 4.69 µM)	20	4.34	5 (≈ 9.38 µM)	5 (≈ 9.38 µM)	20 (≈ 37.5 µM)	20 (≈ 37.5 µM)		
CC(C)[C@@H](CC[C@@H](C)[C@H]1CC[C@H]2[C@@H]3[C@H](O)C[C@H]4C[C@@H](NCCCNCCCCN)CC[C@]4(C)[C@H]3CC[C@]12C)OS(=O)(=O)O [Squalamine, squalamine]	1.75	4 (≈ 6.37 µM)	20 (≈ 31.8 µM)	4 (≈ 6.37 µM)	2 (≈ 3.18 µM)	1.75		4 (≈ 6.37 µM)		12 (≈ 19.1 µM)			
O=C(N[C@H](CO)[C@H](O)c1ccc([N+](=O)[O-])cc1)C(Cl)Cl [chloramphenicol]												1020	
C[C@H]1c2cccc(O)c2C(=O)C2=C(O)[C@]3(O)C(=O)C(C(N)=O)=C(O)[C@@H](N(C)C)[C@@H]3[C@@H](O)[C@@H]21 [doxycycline]													40
